# Measurements as given in patent US20220211658A1, “METHODS FOR TREATING DISORDERS ASSOCIATED WITH SLEEP SPINDLE DEFICITS” (The Broad Institute, Inc., priority 2019, published 2022).
# Legend:
# [1] = test system: WT and CaV3.3 RH mice; assay: EEG recording of NREM sleep, delta power and sleep spindles after LY379268, analyzed by Luna; type: in vivo; details: 10 mg/kg i.p.
# Protocol: (§1) There is a strong correlation between rebound bursting in TRN neurons and the rate of occurrence of sleep spindle oscillations during NREM or deep sleep state in mice (Wells et al., Ghoshal et al.) Since LY379268 increased rebound burst firing of TRN neurons in WT mice and rescued rebound bursting deficits in RH mice, it was examined whether activation of mGlu3 could rescue the sleep spindle deficits observed in the RH mice. LY379268 was administered intraperitoneally (i.p.; 10 mg/kg) while simultaneously recording the brain activity using electroencephalography (EEG) in WT and CaV3.3 RH mice. EEG was recorded using surface electrodes chronically implanted near the frontal and parietal lobes of the mice (Pinnacle Systems). Mice were habituated in the EEG recording arena for 48 hrs and then injected with vehicle (0.9% saline) and recorded for another 24 hours. Then, 10 mg/kg LY379268 formulated in 0.9% saline was injected, and their EEG activity was recorded for another 24 hours, and analyzed by Luna (zzz.bwh.harvard.edu, Ghoshal et al., 2020).
# [2] = test system: TRN neurons in RH mice; assay: Rebound burst firing in TRN neurons, slices from CACNA1I R1305H (RH) mice; type: cell-based; details: LY379268 1 μM bath application, mean±s.e.m., n=9, baseline 1.44±0.444, p=0.0039
# Excerpt: (§2) TRN neurons are known to display dual firing modes depending on their resting membrane potential: tonic and burst firing. While tonic firing refers to regular sodium spike trains at depolarized membrane potential, burst firing is characterized by repetitive “low-threshold” T type Ca^2+ transients (mediated by Cav3.3 channel) crowned by high-frequency sodium spikes when hyperpolarized. This burst firing mode may be critical for the generation and/or the maintenance of certain sleep rhythms in mice, including generation and maintenance of sleep spindle oscillations (Astori et al., 2011; Lee et al., 2014; Steriade et al., 1993; von Krosigk et al., 1993; Sherman et al., 2002).
# Mice carrying a mutation in CACNA1I (R1305H; RH mice) show a significant deficit in rebound bursting of TRN neurons. The amino acid sequence of mouse CACNA1I protein is provided in SEQ ID NO: 2. Whether the group II metabotropic glutamate receptor agonist LY379268 could rescue such deficits in rebound bursting in RH mice was tested. Similar to in WT mice, LY379268 (1 μM) was also able to increase rebound bursting in RH mice (FIG. 2A-2B). The rebound bursting in baseline/control conditions was 1.44±0.444 (mean±s.e.m.), while after the bath application of LY379268 (1 μM) it was 3.78±1.08 (n=9 Wilcoxon signed rank test: p=0.0039**). […]
# [3] = test system: TRN neurons in WT mice; assay: Rebound burst firing in TRN neurons, acute brain slices from WT mice; type: cell-based; details: mean±s.e.m.
# Excerpt: as §2
# Whether this characteristic TRN burst firing activity is affected by activation of the group II metabotropic glutamate receptors, including mGlu2 and mGlu3, was examined using the group II metabotropic glutamate receptor agonist, LY379268. As shown in FIG. 1A-1B, a significant increase in the repetitive rebound bursting after the addition of LY379268 compared to baseline levels in acute brain slices acquired from wild-type (WT) mice was observed. The rebound bursting in the baseline condition (control) was 1.87±0.291 (mean±s.e.m.), while after the bath application of LY379268 (1 μM) it was 2.87±0.435 (n=15 Wilcoxon signed rank test: p=0.002**). Such increase was not observed in WT slices treated with artificial cerebrospinal fluid (ACSF; n=14; baseline: 1.79±0.291; ACSF treated: 2.21±0.299; Wilcoxon signed rank test: p=0.1562). In addition, there was also a reduction in burst threshold (defined as the lowest membrane holding potential from which hyperpolarization induced rebound bursting can be observed) in WT mice after bath application of LY379268 (1 μM; FIG. 1C). The threshold for rebound bursting in the baseline condition (control) was −76.98 mV±1.79 (mean±s.e.m.), while after the bath application of LY379268 (1 μM) it was −78.48 mV±1.80 (n=10 Wilcoxon signed rank test: p=0.048*). Such changes in threshold were also not observed following ACSF treatment (n=10; baseline: −76.06 mV±1.71; ACSF treated: −76.32 mV±1.82; Wilcoxon signed rank test: p=0.3750).
# Since early clinical trials used a prodrug form of another selective group II metabotropic glutamate receptor agonist, specifically […] (a methionine amide of LY-404039, also called pornagiumetad methionil or LY-2140023 monohydrate), the effect of LY-404039 on TRN neuron rebound bursting activity in WT mice was measured. […] The rebound bursting in control conditions was 2.71±0.42 (mean±s.e.m.), while after the bath application of LY404039 (1 μM) it was 4.57±0.64 (n=7 Wilcoxon signed rank test: p=0.0156).
# Whether specific allosteric activation of the mGlu3 receptor can also enhance rebound bursting activity in TRN neurons was examined. […]
# [4] = test system: WT mice; assay: EEG recording of NREM sleep and sleep spindle density after Mavalon-63, decision tree algorithm; type: in vivo; details: 10 mg/kg
# Protocol: as §1
# Whether allosteric activation of mGlu3 receptor using the Mavalon-63 PAM would also lead to an increase in sleep spindle density was examined. The experimental design is shown in FIG. 6A, and mice were similarly recorded as in Example 4. […]
# [5] = both WT and RH mice, 12 hr light cycle
smiles,measurement,setting,value
"N[C@@]1(C(=O)O)CO[C@H]2[C@H](C(=O)O)[C@H]21 (stereo in doubt) [LY379268, (1R,4R,5S, 6R)-4-Amino-2-oxabicyclo[3.1.0]hexane-4,6-dicarboxylic acid]",NREM specific sleep spindle deficits in RH mice,"[1]; RH mice, to wildtype levels, WT-baseline vs RH-LY379268 p>0.05",rescued
same,"sleep spindle density, entire NREM period","[1]; both WT and RH mice, 12-hr light cycle, especially parietal cortex, Fc=13 Hz and 15 Hz",modest but significant increase
same,relative delta power,[1]; [5],concurrent increase
same,time spent in NREM sleep,[1]; [5],increased
same,"increase in sleep spindles, latter half (last 6 hours) of the light cycle","[1]; compared with the entire 12-hr light cycle, Fc=13 Hz and 15 Hz",more robust
same,rebound bursting (number of rebound bursts) after bath application,[2],3.78±1.08
same,threshold for rebound bursting after bath application,"[3]; WT mice, LY379268 1 μM bath application, n=10, baseline −76.98 mV±1.79, p=0.048",−78.48 mV
same,rebound bursting (number of rebound bursts) after bath application,"[3]; WT mice, LY379268 1 μM bath application, n=15, baseline 1.87±0.291, p=0.002",2.87±0.435
"N[C@@]1(C(=O)O)CS(=O)(=O)[C@H]2[C@H](C(=O)O)[C@H]21 [LY404039, (1R,4S,5S,6S)-4-Amino-2-thiabicyclo [3.1.0]hexane-4,6-dicaiboxylic acid 2,2-dioxide]",rebound bursting (number of rebound bursts) after bath application,"[3]; WT mice, LY404039 1 μM bath application, n=7, control 2.71±0.42, p=0.0156",4.57±0.64
"CN1C(=O)c2cccn2-c2cc(-c3ccc(F)cn3)ccc2C12CC2 [Mavalon 63, 5-Methyl-9-(5-fluoropyridin-2-yl)-spiro[benzo [f]pyrrolo[1.2-a][1,4]diazepine-6,1′-cyclopropan]-4(5H)-one]",time spent in NREM,[4]; 12-hr light cycle,did not increase
same,parietal sleep spindle density during NREM,"[4]; averaged across all center frequencies 9-15 Hz, 12 hour light cycle",appreciable and significant (p<0.05; paired t-test) increase
same,rebound bursting (number of rebound bursts) after bath application,"[3]; WT TRN neurons, Mavalon 63 500 nM bath application, n=12, baseline 3.2±0.77, p=0.0020",4.9±0.91
